Read-outs that look alike come from different tables or passages of the source.
Experiments:
[1] = Population pharmacokinetic analysis of 10 clinical studies (Example 7); assay type: in vivo, human
Source text: Base model development. […] Intrinsic covariates analyzed included body weight, age, gender, ethnicity, and baseline calculated CrCL). The CrCL was estimated using the Cockcroft-Gault formula: […] […] Final population PK model: evaluation and performance. […] Smaller shrinkage ≦0.2 indicates good individual estimates.

P. aeruginosa = conditions: neutropenic murine-thigh infection model; cited from earlier work
[2] = Phase 1 single dose PK of 750 mg ceftolozane/tazobactam in severe renal impairment and ESRD on hemodialysis (Example 8); assay type: in vivo, human; conditions: for AUC(0-t) / Cmax / half-life / Tmax / AUC(0-inf) / clearance / Vd: both sexes, human, plasma; for Cmax: read-out: Cmax, Mean (CV %); for half-life: read-out: t1/2, Mean (CV %) (converted); for Tmax: read-out: tmax, Median (minimum, maximum); for AUC(0-inf): read-out: AUC∞, Mean (CV %); for clearance: read-out: CL, Mean (CV %) (converted); for Vd: read-out: Vss, Mean (CV %)
Description: This was a Phase 1, multicenter, prospective, open-label study of 750 mg ceftolozane/tazobactam (as CXA-201) administered IV in male and female adult subjects with severe renal impairment (estimated CLCR<30 mL/min) and subjects with end-stage renal disease (ESRD) on hemodialysis (HD). The primary objective of the study was to determine the PK profile of ceftolozane/tazobactam in subjects with severe renal impairment and subjects with ESRD on HD and to determine the effect of HD on the clearance of ceftolozane/tazobactam.
Subjects with severe renal impairment received a single IV 1-hour infusion of 750 mg ceftolozane/tazobactam on Day 1. […] Subjects in this cohort received an IV dose of 750 mg ceftolozane/tazobactam as a 1 hour infusion immediately after their first HD session on Day 1 (postdialysis, approximately 72 hours prior to the next HD session) and a second dose of ceftolozane/tazobactam approximately 2 hours before their second HD session on Day 4 of the study. Infusion of ceftolozane/tazobactam was completed approximately 1 hour before the start of HD.
Subjects in both cohorts had urine (if not anuric) and plasma samples collected for determination of levels of ceftolozane, tazobactam and the M1 metabolite of tazobactam; subjects in the ESRD on HD cohort also had dialysate fluid samples collected for PK assessment. Plasma, urine, and dialysate levels of ceftolozane, tazobactam, and its metabolite M1 collected over a prespecified interval were determined by LC/MS/MS assay.
All subjects underwent hemodialysis for 3 to 4 hours using a high-flux membrane (either 1.4, 1.8, or 1.9 m^2) on Days 1, 4, and 6 as scheduled. Average blood flow rate was 264 to 600 mL/min and average dialysis flow rate was either 600 or 800 mL/min for all subjects with ESRD.

[3] = Phase I PK studies in subjects with varying degrees of renal function (Example 11); assay type: in vivo, human
Source text: Male and female subjects, aged 18 to 79 years, with varying degrees of renal function were enrolled in two, prospective, open-label, phase I studies of intravenous ceftolozane/tazobactam. A total of 36 subjects were enrolled into cohorts based on degree of renal function: normal (n=11), mild impairment (n=6), moderate impairment (n=7), severe impairment (n=6), and ESRD on HD (n=6). To ensure subjects with ESRD were receiving effective HD, a target adequacy of HD calculated from the pre- and post-blood urea nitrogen ratios (Kt/V) of at least 1.2 for a minimum of 3 months prior to enrollment was required. Renal impairment groups were classified according to the 2010 U.S.

[4] = Pharmacokinetics of ceftolozane/tazobactam in healthy volunteers; assay type: in vivo, human
[5] = cited from earlier work
clinical = conditions: human, in vivo
Source text: CXA-201 plasma concentrations from 6 subjects with ESRD following a single dose without HD and a second dose with HD were used to develop a pPK model (Phoenix NLME, Pharsight).

[6] = cited from earlier work; remark: listed apart in the source
[7] = intravenous, 750 mg, ESRD on HD, second infusion Day 4, start of infusion to end of dialysis
[8] = iv, 750 mg, ESRD on HD, Day 1 IV infusion of 750 mg (non-hemodialysis phase)
[9] = iv, 750 mg, ESRD on HD, second IV infusion of 750 mg on Day 4 (during HD)
[10] = iv, 750 mg, severe renal impairment, single IV 1-hour infusion of 750 mg ceftolozane/tazobactam
[11] = moderate renal impairment, single 1,000 mg/500 mg dose
[12] = severe renal impairment, single 500 mg/250 mg dose

Structure (SMILES): Cn1c(N)c(NC(=O)NCCN)c[n+]1CC1=C(C(=O)[O-])N2C(=O)[C@@H](NC(=O)/C(=N\OC(C)(C)C(=O)O)c3nsc(N)n3)[C@H]2SC1 [Ceftolozane, (6R,7R)-3-[(5-amino-4-{[(2-aminoethyl)carbamoyl]amino}-1-methyl-1H-pyrazol-2-ium-2-yl)methyl]-7-({(2Z)-2-(5-amino-1,2,4-thiadiazol-3-yl)-2-[(1-carboxy-1-methylethoxy)imino]acetyl}amino)-8-oxo-5-thia-1-azabicyclo[4.2.0]oct-2-ene-2-carboxylate]
- Vc ([1]; cIAI): 18.2 L
- Vc ([1]; cUTI, at 74 kg body weight): 13.8 L
- between-subject variability (BSV) of CL ([1]; final population PK model): 33.0%
- clearance ([1]; human, plasma, intravenous, patients with cIAI, at CrCL=109 mL/min, read-out: CL (converted)): 104 mL/min
- CL higher than that in healthy subjects ([1]; patients with cUTI and cIAI): about 20%
- CL ([1]; patients with cUTI, at CrCL=109 mL/min): 6.18 L/h
- free-drug (f) % T>MIC associated with a 1-log10 CFU reduction from baseline (P. aeruginosa): 32.2
- free-drug (f) % T>MIC associated with net bacterial stasis (P. aeruginosa): 24.8
- AUC(0-t) ([2]; intravenous, 750 mg, ESRD on HD, second infusion Day 4, approximately 6 hours from start of infusion to end of dialysis, read-out: AUClast, Mean (CV %)): 87.5 µg·h/mL
- Cmax [2, 7]: 40900 ng/mL
- half-life [2, 7]: 1.25 h
- Tmax [2, 7]: 1 h
- AUC(0-t) ([2]; intravenous, 750 mg, subjects with ESRD, read-out: Exposure (AUC48h) After HD (Day 1), Median (Range)): 903 µg·h/mL
- AUC(0-t) ([2]; intravenous, 750 mg, subjects with ESRD, read-out: Exposure (AUC48h) During HD (Day 3), Median (Range)): 298 µg·h/mL
- AUC(0-inf) [2, 8]: 1680 µg·h/mL
- clearance [2, 8]: 6.67 mL/min
- Cmax [2, 8]: 44500 ng/mL
- Vd [2, 8]: 19.2 L
- half-life [2, 8]: 39.8 h
- AUC(0-t) ([2]; iv, 750 mg, ESRD on HD, Day 1 IV infusion of 750 mg (non-hemodialysis phase), through 48 hours, read-out: AUClast, Mean (CV %)): 910 µg·h/mL
- Cmax [2, 9]: 40900 ng/mL
- half-life [2, 9]: 43.5 h
- AUC(0-t) ([2]; iv, 750 mg, ESRD on HD, second IV infusion of 750 mg on Day 4 (during HD), through 44 hours, read-out: AUClast, Mean (CV %)): 304 µg·h/mL
- AUC(0-t) ([2]; iv, 750 mg, severe renal impairment, single IV 1-hour infusion of 750 mg ceftolozane/tazobactam, through 48 hours, read-out: AUClast, Mean (CV %)): 511 µg·h/mL
- Cmax [2, 10]: 49900 ng/mL
- AUC(0-inf) [2, 10]: 537 µg·h/mL
- clearance [2, 10]: 16.7 mL/min
- Vd [2, 10]: 13.8 L
- half-life [2, 10]: 11.1 h
- Tmax ([2]; ESRD on HD, second IV infusion of 750 mg on Day 4 (during HD)): 1 h
- AUC48h Ratio (Day 3:1), Median (Range) ([2]; subjects with ESRD, during HD vs after HD): 0.34 (0.26 − 0.48)
- Percent Removed, Median (Range) ([2]; subjects with ESRD, hemodialysis): 66 (52 − 74) Percent
- extraction ratio ([3]; 1 h after the start of HD): 42%
- extraction ratio ([3]; 2 h after the start of HD): 48%
- median Cmax in plasma higher compared with normal renal function, dose normalized ([3]; ESRD during non-HD): 1.2 fold
- average extraction ratio during HD ([3]; ESRD on HD): 46%
- median RDHD (percent reduction in plasma concentration during HD) ([3]; ESRD on HD): 92%
- reduction in overall exposure based on the AUC0-∞ on and off HD ([3]; ESRD on HD): approximately 66%
- plasma concentration rebound peak following HD, of the original Cmax ([3]; ESRD, period following HD): approximately 17%
- extraction ratio ([3]; at end of HD): 47%
- clearance ([3]; both sexes, human, dialysate and plasma, intravenous, ESRD on HD, read-out: median dialysis clearance (CLD) (converted)): 95.8 mL/min
- half-life ([3]; both sexes, human, plasma, intravenous, ESRD on HD, read-out: t1/2 during the HD period (converted)): 1.13 h
- increase of median AUC0-∞ compared with normal renal function [3, 11]: 2.5 fold
- increase of median Cmax compared with normal renal function [3, 11]: 1.2 fold
- increase of median AUC0-∞ compared with dose-normalized exposure in normal renal function [3, 12]: 4.4 fold
- increase of median Cmax compared with dose-normalized exposure in normal renal function [3, 12]: 1.3 fold
- clearance ([4]; human, plasma, intravenous, after a single dose of CXA-201, read-out: plasma CL): 68.3 to 112 mL/min
- CL renal ([4]; human, urine and plasma, intravenous, after a single dose of CXA-201, read-out: renal clearance): 56.8 to 112 mL/min
- excreted in the urine as unchanged parent drug ([4]; single 1.5 g intravenous dose of CXA-201, healthy male adults): greater than 95%
- protein binding [5]: approximately 20%
- Vd (clinical): 6 L
- clearance (clinical): 5.67 mL/min
- increase of CL by HD (clinical): 60 fold
- increase of Vc by HD (clinical): 4.7 fold
- terminal elimination half-life (t½β) ([6]; healthy volunteers): approximately 2.5 hours
- Terminal elimination half-lives (t1/2) ([6]; patients with normal renal function): approximately 2.5 h
